Results on 16 compounds are retold here after ChEMBL document CHEMBL1201862, “PubChem BioAssay data set” (2004).

Experiment [1] concerns the target T1, Alkaline phosphatase, tissue-nonspecific isozyme (Homo sapiens, UniProt P05186).
T1 sequence (P05186 whole entry): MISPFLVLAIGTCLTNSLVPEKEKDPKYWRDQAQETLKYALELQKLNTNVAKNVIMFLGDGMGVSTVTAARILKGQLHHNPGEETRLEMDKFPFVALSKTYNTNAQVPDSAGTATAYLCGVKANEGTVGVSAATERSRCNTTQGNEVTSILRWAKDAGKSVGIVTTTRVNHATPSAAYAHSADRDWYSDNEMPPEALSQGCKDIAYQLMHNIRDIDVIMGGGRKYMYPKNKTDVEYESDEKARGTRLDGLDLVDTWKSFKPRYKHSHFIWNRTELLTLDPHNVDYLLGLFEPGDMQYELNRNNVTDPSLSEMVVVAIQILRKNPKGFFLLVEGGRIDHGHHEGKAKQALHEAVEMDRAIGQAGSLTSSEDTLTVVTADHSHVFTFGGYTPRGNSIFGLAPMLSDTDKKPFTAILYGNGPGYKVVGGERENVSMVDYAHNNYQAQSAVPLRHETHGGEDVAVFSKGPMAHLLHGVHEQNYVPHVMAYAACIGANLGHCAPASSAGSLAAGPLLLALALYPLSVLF
Kind of experiment: activation of tissue-nonspecific alkaline phosphatase – biochemical, TNAP isozyme, human IAP uHTS hits, selectivity assay for human IAP activator project, dose response (AID 488886).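 Note: potency of compounds raising TNAP activity as a selectivity check on IAP activators.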 The format is functional.

Experiment [2] addresses T2, Intestinal-type alkaline phosphatase (Homo sapiens, UniProt P09923). Put plainly: human intestinal alkaline phosphatase activators, dose response, biochemical, luminescence, uHTS hits (AID 463120). The format is functional.
The target of experiment [3] is T2, Intestinal-type alkaline phosphatase. Kind of experiment: activation of human intestinal alkaline phosphatase – biochemical, luminescent, uHTS hits, set 2, dose response (AID 488817).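 Note: potency of activators that raise enzyme activity.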 The format is functional.
In experiment [4] the target is Intestinal-type alkaline phosphatase (Mus musculus, UniProt P24822). Kind of experiment: PubChem AID 488875. The format is functional.
The target of a further experiment is Cytochrome P450 3A4 (Homo sapiens, UniProt P08684). To be noted: Potency.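 Note: confirmatory qHTS run detecting inhibitors and substrates of CYP3A4.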
Chain of Cytochrome P450 3A4 (P08684 whole entry): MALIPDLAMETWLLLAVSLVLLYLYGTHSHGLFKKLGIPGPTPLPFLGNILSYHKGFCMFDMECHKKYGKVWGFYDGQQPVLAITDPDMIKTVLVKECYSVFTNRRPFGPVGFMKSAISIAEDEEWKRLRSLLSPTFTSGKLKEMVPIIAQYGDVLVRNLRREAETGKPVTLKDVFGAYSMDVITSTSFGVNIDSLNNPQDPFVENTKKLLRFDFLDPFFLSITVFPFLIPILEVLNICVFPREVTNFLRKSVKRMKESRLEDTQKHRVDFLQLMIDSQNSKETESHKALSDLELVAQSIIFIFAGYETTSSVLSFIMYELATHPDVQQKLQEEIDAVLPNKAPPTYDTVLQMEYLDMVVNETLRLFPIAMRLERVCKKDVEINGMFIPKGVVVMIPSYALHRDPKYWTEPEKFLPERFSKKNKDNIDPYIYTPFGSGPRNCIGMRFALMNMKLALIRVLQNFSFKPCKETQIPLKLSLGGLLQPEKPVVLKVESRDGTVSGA
In experiment [5] the target is T3, Rac GTPase-activating protein 1 (Homo sapiens, UniProt Q9H0H5).
T3 sequence (Q9H0H5 whole entry): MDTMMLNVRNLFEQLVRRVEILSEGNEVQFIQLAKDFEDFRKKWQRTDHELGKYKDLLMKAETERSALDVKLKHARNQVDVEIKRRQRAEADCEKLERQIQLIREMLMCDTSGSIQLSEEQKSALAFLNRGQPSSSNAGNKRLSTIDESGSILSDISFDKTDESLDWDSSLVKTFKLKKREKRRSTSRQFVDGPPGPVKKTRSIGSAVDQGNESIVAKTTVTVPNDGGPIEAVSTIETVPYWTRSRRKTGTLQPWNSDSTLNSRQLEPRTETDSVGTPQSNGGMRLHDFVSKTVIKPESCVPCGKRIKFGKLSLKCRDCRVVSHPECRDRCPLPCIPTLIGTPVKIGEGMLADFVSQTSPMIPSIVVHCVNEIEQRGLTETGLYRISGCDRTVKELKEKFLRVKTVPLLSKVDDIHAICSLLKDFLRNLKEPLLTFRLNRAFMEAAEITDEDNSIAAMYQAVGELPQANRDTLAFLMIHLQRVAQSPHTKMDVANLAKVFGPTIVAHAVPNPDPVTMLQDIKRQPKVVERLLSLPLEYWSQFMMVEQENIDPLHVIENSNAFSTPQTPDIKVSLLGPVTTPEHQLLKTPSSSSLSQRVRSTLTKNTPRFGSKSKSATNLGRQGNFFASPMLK
Put plainly: blockers of MgcRacGAP-driven Rac1 GTP hydrolysis – biochemical, ADP Hunter fluorescence, primary and confirmatory, confirmation (AID 624330). The format is functional.

A further experiment in a line: cells. The format is functional.
A short description of experiment [6]: THP-1 cell cytotoxicity, dose response, cytotoxicity control for non-replicating M. tuberculosis project (AID 489025). The format is functional.
Experiment [7] can be described thus: viability of uninfected HEp-2 cells – cell-based, HTS, cytotoxicity control for RSV inhibitor project, dose response (AID 2410). The format is functional. To be noted: human respiratory syncytial virus.
A short description of experiment [8]: microbe, parasite or virus in culture. The format is functional. To be noted: Mycobacterium tuberculosis.
Experiment [9] is described as follows: HepG2 cell cytotoxicity, dose response, cytotoxicity control for non-replicating M. tuberculosis project (AID 489018). As to conditions: Mycobacterium tuberculosis. The format is functional.
The target in experiment [10] is DNA dC->dU-editing enzyme APOBEC-3G (Homo sapiens, UniProt Q9HC16). The format is functional.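 Note: Dose-response counterscreen measuring inhibition of APOBEC3G DNA deaminase activity, run while confirming APOBEC3A inhibitors.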
Chain of DNA dC->dU-editing enzyme APOBEC-3G (Q9HC16 whole entry): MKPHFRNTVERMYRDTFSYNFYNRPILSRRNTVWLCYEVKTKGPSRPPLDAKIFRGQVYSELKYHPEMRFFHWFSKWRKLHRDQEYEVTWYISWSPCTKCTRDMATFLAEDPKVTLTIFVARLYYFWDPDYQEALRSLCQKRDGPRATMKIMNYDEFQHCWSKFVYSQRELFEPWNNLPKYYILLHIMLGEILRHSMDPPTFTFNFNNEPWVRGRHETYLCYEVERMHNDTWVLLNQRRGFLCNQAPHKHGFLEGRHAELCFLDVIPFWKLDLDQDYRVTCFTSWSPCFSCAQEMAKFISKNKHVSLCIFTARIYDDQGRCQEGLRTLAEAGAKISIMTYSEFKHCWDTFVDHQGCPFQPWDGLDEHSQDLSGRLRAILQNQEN
Experiment [11] addresses DNA dC->dU-editing enzyme APOBEC-3A (Homo sapiens, UniProt P31941). Kind of experiment: Dose Response confirmation of small molecule APOBEC3A DNA Deaminase Inhibitors via a fluorescence-based single-stranded DNA deaminase assay. [Related pubchem assays (depositor defined):AID493011, AID493024]. The format is functional.
Experiment [12] concerns the target T4, Carboxy-terminal domain RNA polymerase II polypeptide A small phosphatase 1 (Homo sapiens, UniProt Q9GZU7).
T4 sequence (Q9GZU7 whole entry): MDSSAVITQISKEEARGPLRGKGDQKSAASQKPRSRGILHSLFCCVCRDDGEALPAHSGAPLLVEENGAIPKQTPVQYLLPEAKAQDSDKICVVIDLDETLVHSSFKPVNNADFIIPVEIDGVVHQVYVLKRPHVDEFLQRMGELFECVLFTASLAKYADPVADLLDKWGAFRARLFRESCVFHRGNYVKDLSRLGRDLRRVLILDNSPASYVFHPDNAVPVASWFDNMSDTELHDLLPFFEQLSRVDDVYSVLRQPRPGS
Kind of experiment: CTDSP1 inhibitors, concentration-response, biochemical, absorbance readout, ultra-high-throughput screen actives (AID 540297). The format is functional.

Experiment [13] has as its target T5, Lysosomal acid glucosylceramidase (Homo sapiens, UniProt P04062).
T5 sequence (P04062 whole entry): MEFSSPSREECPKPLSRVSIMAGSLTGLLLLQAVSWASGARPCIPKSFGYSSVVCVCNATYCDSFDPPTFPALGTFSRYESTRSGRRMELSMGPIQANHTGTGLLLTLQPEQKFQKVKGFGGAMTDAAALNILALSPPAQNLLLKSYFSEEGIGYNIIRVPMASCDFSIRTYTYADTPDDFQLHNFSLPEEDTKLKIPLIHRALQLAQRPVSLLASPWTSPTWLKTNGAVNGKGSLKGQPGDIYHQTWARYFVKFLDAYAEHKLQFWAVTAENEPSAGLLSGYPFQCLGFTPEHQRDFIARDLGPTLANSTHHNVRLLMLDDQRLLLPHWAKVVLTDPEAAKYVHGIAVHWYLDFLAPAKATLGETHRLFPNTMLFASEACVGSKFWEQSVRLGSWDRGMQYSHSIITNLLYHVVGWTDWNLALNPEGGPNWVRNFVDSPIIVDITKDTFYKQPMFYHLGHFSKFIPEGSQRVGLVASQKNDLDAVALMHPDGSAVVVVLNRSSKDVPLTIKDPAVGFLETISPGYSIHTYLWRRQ
Kind of experiment: Dose response cell-based high throughput screening assay to identify enhancers of beta-glucosidase activity. [Related pubchem assays: 784 ]. The format is functional.

The target of experiment [14] is T6, Voltage-gated N-type calcium channel alpha-1B subunit/Amyloid beta A4 precursor protein-binding family A member 1 (Homo sapiens, UniProt Q00975+Q02410). The format is protein assay.
T6 sequence (Q00975 whole entry): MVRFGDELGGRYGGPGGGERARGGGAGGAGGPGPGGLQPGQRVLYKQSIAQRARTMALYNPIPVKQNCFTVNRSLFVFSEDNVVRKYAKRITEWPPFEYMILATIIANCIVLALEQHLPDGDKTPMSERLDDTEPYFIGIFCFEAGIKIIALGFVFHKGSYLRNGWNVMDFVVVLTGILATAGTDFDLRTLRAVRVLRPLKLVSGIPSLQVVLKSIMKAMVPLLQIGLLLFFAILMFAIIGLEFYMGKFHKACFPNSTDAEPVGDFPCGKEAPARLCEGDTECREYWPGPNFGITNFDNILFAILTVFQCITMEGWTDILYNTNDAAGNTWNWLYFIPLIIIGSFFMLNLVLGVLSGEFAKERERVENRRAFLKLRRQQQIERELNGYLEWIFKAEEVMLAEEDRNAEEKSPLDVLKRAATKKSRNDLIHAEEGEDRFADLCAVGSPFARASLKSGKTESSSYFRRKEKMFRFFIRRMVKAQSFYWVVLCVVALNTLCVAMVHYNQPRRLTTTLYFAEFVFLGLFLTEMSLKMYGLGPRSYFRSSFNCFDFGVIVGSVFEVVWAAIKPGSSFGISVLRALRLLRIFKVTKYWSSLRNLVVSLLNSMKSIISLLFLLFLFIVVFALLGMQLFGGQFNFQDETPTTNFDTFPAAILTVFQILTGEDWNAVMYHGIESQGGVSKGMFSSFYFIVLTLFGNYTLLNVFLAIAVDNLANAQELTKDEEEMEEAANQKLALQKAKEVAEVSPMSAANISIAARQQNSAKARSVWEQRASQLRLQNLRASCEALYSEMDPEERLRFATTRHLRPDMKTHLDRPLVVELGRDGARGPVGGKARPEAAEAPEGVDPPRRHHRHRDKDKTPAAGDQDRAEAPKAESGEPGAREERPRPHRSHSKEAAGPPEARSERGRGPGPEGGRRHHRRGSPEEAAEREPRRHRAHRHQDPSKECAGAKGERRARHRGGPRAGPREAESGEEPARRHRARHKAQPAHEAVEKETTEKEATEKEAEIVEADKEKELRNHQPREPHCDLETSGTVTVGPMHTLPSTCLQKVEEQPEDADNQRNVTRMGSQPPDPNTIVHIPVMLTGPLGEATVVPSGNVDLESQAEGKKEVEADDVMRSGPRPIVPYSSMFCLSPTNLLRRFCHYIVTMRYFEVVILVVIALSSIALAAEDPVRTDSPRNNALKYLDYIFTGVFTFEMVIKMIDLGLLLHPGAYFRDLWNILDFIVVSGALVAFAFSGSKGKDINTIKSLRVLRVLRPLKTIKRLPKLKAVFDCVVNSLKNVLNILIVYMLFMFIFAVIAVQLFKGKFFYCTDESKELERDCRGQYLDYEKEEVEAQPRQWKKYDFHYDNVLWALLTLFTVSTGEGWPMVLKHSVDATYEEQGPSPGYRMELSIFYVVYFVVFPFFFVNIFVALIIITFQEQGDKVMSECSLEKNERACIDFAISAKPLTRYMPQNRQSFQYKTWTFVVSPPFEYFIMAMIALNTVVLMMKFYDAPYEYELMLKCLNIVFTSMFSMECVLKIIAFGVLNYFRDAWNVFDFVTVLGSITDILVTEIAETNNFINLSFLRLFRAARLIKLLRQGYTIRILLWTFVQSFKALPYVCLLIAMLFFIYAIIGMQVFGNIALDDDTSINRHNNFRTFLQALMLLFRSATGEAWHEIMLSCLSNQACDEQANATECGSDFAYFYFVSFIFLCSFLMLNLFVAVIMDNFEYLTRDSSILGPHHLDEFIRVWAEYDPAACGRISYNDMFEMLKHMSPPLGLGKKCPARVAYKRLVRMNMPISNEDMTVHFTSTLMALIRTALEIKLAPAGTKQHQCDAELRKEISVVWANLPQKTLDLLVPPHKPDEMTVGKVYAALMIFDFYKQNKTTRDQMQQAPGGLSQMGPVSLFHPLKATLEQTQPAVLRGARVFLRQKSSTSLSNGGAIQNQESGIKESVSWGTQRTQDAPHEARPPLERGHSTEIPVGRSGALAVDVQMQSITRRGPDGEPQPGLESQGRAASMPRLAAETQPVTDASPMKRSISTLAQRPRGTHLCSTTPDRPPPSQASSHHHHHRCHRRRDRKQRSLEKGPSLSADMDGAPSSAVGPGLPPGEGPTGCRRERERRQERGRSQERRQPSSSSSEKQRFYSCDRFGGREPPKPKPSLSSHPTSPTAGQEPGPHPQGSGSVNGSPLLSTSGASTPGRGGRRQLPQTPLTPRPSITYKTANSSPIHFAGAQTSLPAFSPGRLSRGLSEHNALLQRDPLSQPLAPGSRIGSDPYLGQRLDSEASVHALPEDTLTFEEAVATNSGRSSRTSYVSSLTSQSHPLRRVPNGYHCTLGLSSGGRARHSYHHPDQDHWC
T6 sequence (Q02410 whole entry): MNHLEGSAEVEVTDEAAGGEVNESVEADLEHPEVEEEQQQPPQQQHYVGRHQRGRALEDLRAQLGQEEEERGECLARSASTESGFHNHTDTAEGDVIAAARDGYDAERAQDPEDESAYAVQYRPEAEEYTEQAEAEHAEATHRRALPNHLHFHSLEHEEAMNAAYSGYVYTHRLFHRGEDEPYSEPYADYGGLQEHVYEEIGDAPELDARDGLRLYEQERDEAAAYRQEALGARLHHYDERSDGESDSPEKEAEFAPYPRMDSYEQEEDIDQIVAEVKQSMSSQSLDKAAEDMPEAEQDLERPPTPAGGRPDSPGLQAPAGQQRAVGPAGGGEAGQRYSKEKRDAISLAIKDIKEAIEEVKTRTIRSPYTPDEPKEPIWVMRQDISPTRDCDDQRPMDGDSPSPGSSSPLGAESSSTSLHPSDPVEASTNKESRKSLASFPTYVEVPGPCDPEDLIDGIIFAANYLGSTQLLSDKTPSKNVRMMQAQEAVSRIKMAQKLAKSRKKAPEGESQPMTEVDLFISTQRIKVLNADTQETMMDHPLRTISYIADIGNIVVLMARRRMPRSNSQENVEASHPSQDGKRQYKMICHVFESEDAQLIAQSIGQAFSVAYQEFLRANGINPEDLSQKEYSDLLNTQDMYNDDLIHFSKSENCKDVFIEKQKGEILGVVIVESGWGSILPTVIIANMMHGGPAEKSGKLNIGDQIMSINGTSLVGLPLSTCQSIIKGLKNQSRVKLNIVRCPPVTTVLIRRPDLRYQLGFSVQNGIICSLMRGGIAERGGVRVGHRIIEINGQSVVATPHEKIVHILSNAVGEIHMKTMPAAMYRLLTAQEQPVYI
Experiment [15] deals with T6, Voltage-gated N-type calcium channel alpha-1B subunit/Amyloid beta A4 precursor protein-binding family A member 1. The format is protein assay. The source holds these as a separate data set.
Experiment [16] addresses T7, RNA-binding protein pos-1 (Caenorhabditis elegans, UniProt G5EF15).
T7 sequence (G5EF15 whole entry): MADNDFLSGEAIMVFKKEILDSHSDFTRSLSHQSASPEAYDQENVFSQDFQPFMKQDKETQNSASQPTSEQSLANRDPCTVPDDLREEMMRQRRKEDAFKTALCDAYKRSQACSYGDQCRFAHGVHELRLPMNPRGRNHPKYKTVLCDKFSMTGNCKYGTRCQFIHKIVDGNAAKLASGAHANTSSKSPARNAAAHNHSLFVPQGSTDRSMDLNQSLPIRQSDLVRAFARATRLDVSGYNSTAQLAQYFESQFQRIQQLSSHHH
Kind of experiment: disruptors of C. elegans POS-1 RNA interaction – biochemical, fluorescence polarization, dose response (AID 1964). (Fluorescence polarisation rises when a labelled molecule tumbles more slowly, as on binding a larger partner.)

The target in experiment [17] is T8, Zinc finger protein mex-5 (Caenorhabditis elegans, UniProt Q9XUB2).
T8 sequence (Q9XUB2 whole entry): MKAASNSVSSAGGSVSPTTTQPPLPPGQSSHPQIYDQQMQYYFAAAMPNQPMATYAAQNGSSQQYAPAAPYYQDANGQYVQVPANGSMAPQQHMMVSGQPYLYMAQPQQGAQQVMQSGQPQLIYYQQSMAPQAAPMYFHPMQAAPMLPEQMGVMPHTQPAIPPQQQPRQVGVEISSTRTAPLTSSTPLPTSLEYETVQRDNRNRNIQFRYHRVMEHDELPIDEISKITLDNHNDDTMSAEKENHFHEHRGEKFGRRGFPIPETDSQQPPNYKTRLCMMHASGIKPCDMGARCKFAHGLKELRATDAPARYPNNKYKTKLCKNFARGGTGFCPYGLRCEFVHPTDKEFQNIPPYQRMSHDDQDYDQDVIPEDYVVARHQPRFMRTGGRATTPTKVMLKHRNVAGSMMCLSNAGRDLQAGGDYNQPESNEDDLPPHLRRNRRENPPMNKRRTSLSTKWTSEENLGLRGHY
Put plainly: potency of MEX-5 RNA-binding blockers – biochemical, C. elegans, fluorescence polarization, dose response (AID 1960).

The next experiment has as its target T9, Bcl-2-like protein 10 (Homo sapiens, UniProt Q9HD36).
T9 sequence (Q9HD36 whole entry): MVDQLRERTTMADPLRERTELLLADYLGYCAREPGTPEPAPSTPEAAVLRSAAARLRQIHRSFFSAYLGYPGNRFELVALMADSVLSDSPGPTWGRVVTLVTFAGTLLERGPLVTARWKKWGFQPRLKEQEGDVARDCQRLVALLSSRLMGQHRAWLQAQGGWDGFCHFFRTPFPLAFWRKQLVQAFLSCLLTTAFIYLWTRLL
Put plainly: Bcl-B/TR3 peptide binding disruption – biochemical, fluorescence polarization, FITC-TR3 peptide, selectivity assay for Bfl-1 inhibitor project, primary screen (AID 748).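 Note: fluorescence polarization from a fluorescein-labelled TR3 peptide binding purified Bcl-B.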

A short description of experiment [18]: A cytotoxicity screen of small molecule inhibitors of the PhoP region in Salmonella typhi identified in the primary screen. [Related pubchem assays: 1850, 1864, 1985 ]. The format is functional.

Each structure is given as a SMILES string. Calls of active or inactive are those of the source. Some results are limits rather than exact numbers.

Chain of DNA dC->dU-editing enzyme APOBEC-3A (P31941 whole entry, the tested form may be a part): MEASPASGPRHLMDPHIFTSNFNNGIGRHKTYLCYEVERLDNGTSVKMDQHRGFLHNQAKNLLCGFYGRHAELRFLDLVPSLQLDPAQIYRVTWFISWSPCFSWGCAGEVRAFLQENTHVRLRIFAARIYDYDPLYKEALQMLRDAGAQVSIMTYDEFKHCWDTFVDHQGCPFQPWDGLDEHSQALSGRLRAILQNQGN
T2 sequence (P09923 whole entry): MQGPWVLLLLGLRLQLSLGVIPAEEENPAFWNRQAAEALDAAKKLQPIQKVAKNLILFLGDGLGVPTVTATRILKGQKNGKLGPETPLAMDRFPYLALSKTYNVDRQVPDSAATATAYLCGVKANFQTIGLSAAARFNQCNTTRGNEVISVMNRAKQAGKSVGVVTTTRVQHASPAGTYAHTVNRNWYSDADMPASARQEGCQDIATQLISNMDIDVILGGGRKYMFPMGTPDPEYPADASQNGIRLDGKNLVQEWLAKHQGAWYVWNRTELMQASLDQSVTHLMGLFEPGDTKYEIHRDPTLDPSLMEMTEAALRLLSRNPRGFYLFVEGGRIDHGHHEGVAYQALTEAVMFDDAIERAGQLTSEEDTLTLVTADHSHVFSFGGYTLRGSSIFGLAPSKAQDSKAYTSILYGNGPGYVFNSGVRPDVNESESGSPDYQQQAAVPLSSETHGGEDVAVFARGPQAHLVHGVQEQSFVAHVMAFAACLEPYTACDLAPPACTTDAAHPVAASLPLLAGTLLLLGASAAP

In general, EC50 refers to the midpoint of the concentration-response curve. As to `COc1ccccc1N(C)S(=O)(=O)c1ccc(Cl)c(C(=O)NNC(=O)c2ccccc2O)c1`, the EC50 is 26.5 µM (active) in [1], 11.5 µM (active) in [2], 15.7 µM (active) in experiment [3] and > 100 µM (inactive) in [4].

As a reminder, the AC50 is the midpoint of the concentration-response curve, whichever way the signal moves. In general, IC50 refers to the concentration that gives 50% inhibition. For the compound `Oc1cccc(Nc2ccccc2)c1`, the concentration at half-maximal activity (AC50) at Cytochrome P450 3A4 is 15.8 µM (inconclusive). Further, the IC50 in [5] is 62.6 µM (active).

With `C=CCNCC(=O)N1N=C(c2ccc3ccccc3c2)CC1c1ccc(OC)cc1` (centres undefined), in “cells”, the IC50 was 18.1 µM (active). The CC50 in experiment [6] was 23.5 µM (active); in experiment [7], 14.9 µM (active); in experiment [8], 25.5 µM (active); in experiment [9] it was > 20 µM (active).

Consider `COC(=O)c1ccccc1NC(=O)c1cc[n+](C)cc1`, for which the results for the IC50 in [10] and in experiment [11] were 4.04 µM (active) and 3.62 µM (active), respectively.

Regarding `CCOC(=O)C[n+]1c(C)n(C)c2cc(Cl)c(Cl)cc21`, the IC50 was 2.2 µM (active) in [10] and 2.26 µM (active) in experiment [11].

For the compound `CCOc1ccc(/N=C2/SCCCN2C)cc1`, the concentration for half-maximal inhibition (IC50) in experiment [10] was 2.35 µM (active); in experiment [11], 2.19 µM (active); in [12], 17 µM (active).

In the case of `COc1ccc(S(=O)(=O)N(CC(=O)NCC2CCCO2)c2ccccc2)cc1OC` (centres undefined), the EC50 in experiment [13] was > 50 µM (not active).

As to `N#CCC(=O)N/N=C/c1cn(Cc2ccc(Cl)c(Cl)c2)c2ccccc12`, the IC50 in experiment [14] is > 56.8 µM (not active); in experiment [15], > 50 µM (inactive).

`N=c1c(C(=O)NCC2CCCO2)cc2c(=O)n3ccccc3nc2n1Cc1cccnc1` (centres undefined): the EC50 in [16] is 17.1 µM (active); in [17], 12.2 µM (active). Besides, on Bcl-2-like protein 10, the IC50 was > 25 µM (inactive).

Regarding `CC1(C)CC2C1CCC1(C)OC2(C)CCC1O` (centres undefined) [3,7-EPOXYCARYOPHYLLAN-6-OL], the AC50 on Cytochrome P450 3A4 is 25.1 µM (inconclusive).

For `C=CCNS(=O)(=O)c1nc(C)c(Cl)c(C)c1C#N`, the IC50 at Bcl-2-like protein 10 is > 100 µM (inactive).

In the case of `CCOc1ccccc1-n1c(SCC(N)=O)nnc1-c1ccc(O)cc1`, the EC50 in experiment [13] is > 50 µM (not active).

For the compound `Cc1cc(NS(=O)(=O)c2ccc(NC(=O)CCN3C(=O)c4ccccc4C3=O)cc2)no1`, in [13], the half-maximal effective concentration (EC50) is given as > 50 µM (not active).

For `O=C(NC1CCCCC1)NC1CCCCC1` [1,3-DICYCLOHEXYLUREA], the AC50 on Cytochrome P450 3A4 is 3.16 µM (inconclusive).

Regarding `Cc1nc(C)c(-c2ccc(SCc3ccccc3C)nn2)s1`, in [18], the EC50 was > 50 µM (active).

Take `O=C(N/N=C/c1c(F)cccc1Cl)c1cc(C2CC2)[nH]n1`: the EC50 in experiment [1] is 41.3 µM (active); in [2], 21.5 µM (active); in experiment [3], 40.6 µM (active); in experiment [4], > 100 µM (inactive).
